A short description of data set [1]: Determination KL-Z and εmax. The format is physicochemical. To be noted: for εmax: 0.1% TFA in TFE (rhodamine 10), 0.1% TFA in ethanol (Si-rhodamine 8); for KL-Z (lactone-zwitterion equilibrium constant): 1:1 (v/v) dioxane:water, 0.01% triethylamine. The method, then:
Determination KL-Z and εmax. The lactone-zwitterion equilibrium constant (KL-Z) was calculated as described previously^18,41 using equation 1: KL-Z=(εdw/εmax)/(1−εdw/εmax) (1) • where εdw is the extinction coefficient of the dyes in a 1:1 (v/v) dioxane:water solvent mixture containing 0.01% (v/v) triethylamine; the dioxane-water mixture was chosen to give a large range of KL-Z values and the triethylamine additive ensures the rhodamines are in the net neutral form. The emax (maximal extinction coefficient) values were measured in 0.1% (v/v) trifluoroacetic acid (TFA) in 2,2,2-trifluoroethanol (TFE) for rhodaminc 10, and 0.1% (v/v) TFA in ethanol for the Si-rhodamine 8.
Instead, a solution of strong acid in alcoholic solvents was used (e.g., TFA in […]) to shift the equilibrium to the open form by protonation of the o-carboxyl group. This decades-old procedure^36 allows estimation of the maximal extinction coefficient (εmax) and determination of KL-Z=(ε/εmax)/(1−ε/εmax).
The KL-Z was determined using ε values measured in 1:1 dioxane:water to ensure a broad distribution of values.^18 An inverse relationship was observed between KL-Z and fluorogenicity, showing that KL-Z is sufficient to accurately predict the increase in fluorescence of rhodamine dyes. This increase in fluorescence is primarily driven by the increase in absorption; chromogenicity is correlated both with KL-Z and fluorogenicity (FIGS. 11E-11J). Importantly, this trend holds across different rhodamine scaffolds including Si-rhodamines (1-3), carborhodamines (4-5), and classic, oxygen-containing rhodamines (6-7, FIG. 1C). Based on this inverse relationship a simple rubric was determined: a dye with KL-Z<10^−2 should yield a HaloTag ligand with at least 10-fold fluorogenicity (FIG. 1E).

Data set [2] in a line: UV-vis and fluorescence spectroscopy. The conditions noted are these: for εw / λabs / λem: 10 mM HEPES, pH 7.3; for hypsochromic shift: relative to parent dye (SiR for SiR110; JF549 for JF525). Type of data set: physicochemical. Here is the method: UV-vis and fluorescence spectroscopy. […] Spectroscopy was performed using 1-cm path length, 3.5-mL quartz cuvettes or 1-cm path length, 1.0-ml quartz microcuvettes (Starna Cells). All measurements were taken at ambient temperature (22±2° C.). Absorption spectra were recorded on a Cary Model 100 spectrometer (Agilent). Fluorescence spectra were recorded on a Cary Eclipse fluorometer (Varian). Maximum absorption wavelength (λabs), extinction coefficient (εw), and maximum emission wavelength (λem) were taken in 10 mM HEPES, pH 7.3 buffer unless otherwise noted; reported values for ew are averages (n=3). Normalized spectra are shown for clarity.

Data set [3] in a line: Quantum yield determination. Type of data set: physicochemical. The conditions noted are these: for ϕ (fluorescence quantum yield): absolute, integrating sphere. The method, then: (§1) Quantum yield determination. All reported absolute fluorescence quantum yield values (Φ) were measured in the laboratory under identical conditions using a Quantaurus-QY spectrometer (model C11374, Hamamatsu). This instrument uses an integrating sphere to determine photons absorbed and emitted by a sample. Measurements were carried out using dilute samples (A<0.1) and self-absorption corrections were performed using the instrument software^57 when appropriate. Reported values are averages (n=3).

In data set [4] the test system is histone H2A.Z-HaloTag fusion. The experiment in a line: Comparison of HaloTag ligands 6HTL and 9HTL in live yeast. The conditions noted are these: 10 nM, 2 h, washed, wide-field fluorescence. Type of data set: cell-based, S. cerevisiae. The method, then:
Comparison of HaloTag ligands 6HTL and 9HTL. in live yeast. A S. cerevisiae strain expressing a histone H2A.Z-HaloTag fusion under natural promoter control was created; the PDR5 transporter gene was also deleted for improved cellular retention of fluorescent ligands. Cells were grown to early log phase and incubated with either JF552-HaloTag ligand (9HTL; 10 nM) or JF549-HaloTag ligand (6HTL; 10 nM) for 2 h. Free ligand was removed by three washes in culture media and the live cells were imaged by wide-field fluorescence microscopy at ambient temperature.

The conditions of data set [5]: Introduction, known dyes; cited from earlier work.
A short description of data set [6]: Absorption of dyes 1 and 2 in the presence of laboratory detergents. The format is physicochemical. To be noted: 20 mM sodium phosphate buffer, pH 7.0, 5 mg/mL detergent. Here is the method:
FIGS. 11A-11J. FIG. 11A-Absorption at λabs for dyes 1 and 2 in 20 mM sodium phosphate buffer, pH 7.0 containing 5 mg/mL detergent, error bars show±s.e.m. FIGS. 11B and 11C-Absorption spectra for dyes 1 (FIG. 11B) and 2 (FIG. 11C) near λabs in the presence (dashed line) or absence (solid line) of SDS. FIG. 11D—Chemical structures and properties of HaloTag ligands 1HTL-10HTL; ΔA/A0 indicates the change in absorption (ΔA) and ΔF/F0 indicates the change in fluorescence (ΔF) of the HaloTag ligands upon binding purified HaloTag protein divided by the basal absorption or fluorescence of the free ligand (F0 or A0). FIG. 11E—ΔA/A0 of the HaloTag ligands 1HTL-10HTL vs. KL-Z of the corresponding free dyes 1-10; the solid line indicates a linear fit (R^2=0.93). (f) ΔF/F0 vs. ΔA/A0 for the HaloTag ligands 1HTL-10HTL; the solid line indicates a linear fit (R^2=0.87). FIG. 11G—Normalized absorption (abs, solid line), normalized fluorescence excitation (ex, dashed line), and FIG. 11H—normalized fluorescence emission (em) spectra for dye 8 in 10 mM HEPES, pH 7.3.
The mechanism of SiR/JF646 fluorogenicity. […] The interaction between the Si-rhodamine dyes 1 and 2 and SDS was further characterized by measuring the absorption of 1 or 2 vs. [SDS] and observing the absorbance increase only above the critical micelle concentration (c.m.c.) of SDS (FIG. 1C). […]

For data set [7] the following is noted: Introduction, known dyes; cited from earlier work. The source holds these as a separate data set.
The subject of data set [8] is polyG·polyC DNA (DNAGC). The experiment in a line: Quantum yield of 10HST following binding DNA (polyG·polyC). To be noted: PBS pH 7.4, with polyG·polyC DNA duplex. The method, then: as §1
(§2) Measurement of increase in absorbance and fluorescence of 10HST following binding DNA. 10HST (5 μM) was added to phosphate buffered saline (PBS; pH 7.4) containing no DNA (blank), a DNA duplex with sequences 5′-A20-3′ and 5′-T20-3′ (polyA·polyT; i.e., DNAAT; 50 μM; Integrated DNA Technologies), or a DNA duplex with sequences 5′-G20-3′ and 5′-C20-3′ (polyG·polyC; i.e., DNAGC; 50 μM; Integrated DNA Technologies). These solutions were incubated for 2 h at ambient temperature, followed by measurement of absorption spectra. The solutions were then diluted to 500 nM in PBS for measurement of fluorescence spectra or diluted to 1.25 μM in PBS for measurement of quantum yield. Found: 10HST Φ=0.009; 10HST·DNAAT Φ=0.126; 10HST·DNAGC Φ=0.040.

Data set [9] deals with polyA·polyT DNA (DNAAT). Put plainly: Quantum yield of 10HST following binding DNA (polyA·polyT). To be noted: PBS pH 7.4, with polyA·polyT DNA duplex. Here is the method:
as §1, §2

The conditions of data set [10]: Introduction, known dyes, cited from earlier work; for ε (extinction coefficient): free dye in aqueous solution.

Like-named read-outs stand apart in the source and are kept apart here.

On to `O=C1OC2(c3ccc(N4CCC4)cc3Oc3cc(N4CCC4)ccc32)c2ccccc21` [dye 6, JF549], for which, in data set [1], the εmax is listed as 134,000 M^−1cm^−1 and the “KL-Z (lactone-zwitterion equilibrium constant)” value was determined as 3.5. In [2], the εw is 101,000 M^−1cm^−1, the λabs amounted to 549 nm and the λem is listed as 571 nm. Further, in data set [3], the “ϕ (fluorescence quantum yield)” value turned out to be 0.88.

`O=C(NCCOCCOCCCCCCCl)c1ccc2c(c1)C1(OC2=O)c2ccc(N3CCC3)cc2Oc2cc(N3CCC3)ccc21` [6HTL]: the “labeling of yeast nuclei (fluorescence signal)” value in [4] is given as “relatively poor labeling”.

In the case of `CN(C)c1ccc2c(c1)[Si](C)(C)c1cc(N(C)C)ccc1C21OC(=O)c2ccccc21` [dye 1, tetramethyl-Si-rhodamine], in data set [5], the “Φ (fluorescence quantum yield)” value is reported as 0.41. In [1], the εmax was 141,000 M^−1cm^−1 and the “KL-Z (lactone-zwitterion equilibrium constant)” value is 0.0034. In addition, the “change of absorption with detergents” value in [6] was “absorbance increases only in the presence of SDS”. In addition, in [7], the KL-Z is given as 0.0034. Also, the “ϕ (fluorescence quantum yield)” value in data set [3] was 0.41.

Consider Si-Rhodamine 110 [dye 8], for which, in data set [1], the εmax is 94,000 M^−1cm^−1 and the “KL-Z (lactone-zwitterion equilibrium constant)” value came to 0.0043. Moreover, in [2], the εw is recorded as 2,200 M^−1cm^−1, the λabs is 587 nm, the λem was 609 nm and the hypsochromic shift is listed as approximately 50 nm. The “ϕ (fluorescence quantum yield)” value in data set [3] was 0.53.

Take JF526-Hoechst [10HST]: the Φ came to 0.040 in data set [8]; 0.126 in data set [9]; 0.009 in data set [3] (PBS pH 7.4, no DNA (blank), 1.25 μM).

As for `O=C(NCCOCCOCCCCCCCl)c1ccc(C(=O)[O-])c(-c2c3cc(F)c(=[N+]4CCC4)cc-3oc3cc(N4CCC4)c(F)cc23)c1` [9HTL, JF552-HaloTag ligand], in data set [4], the “labeling of yeast nuclei (fluorescence signal)” value was “high fluorescence signal”.

As to `CC1(C)c2cc(N3CC(F)(F)C3)ccc2C2(OC(=O)c3ccccc32)c2ccc(N3CC(F)(F)C3)cc21` [dye 5, JF585], in data set [1], the εmax is recorded as 156,000 M^−1cm^−1 and the “KL-Z (lactone-zwitterion equilibrium constant)” value is reported as less than 0.0001. Besides, in data set [2], the εw is 1,500 M^−1cm^−1, the λabs turned out to be 585 nm and the λem came to 609 nm. In data set [3], the “ϕ (fluorescence quantum yield)” value was 0.78.

Consider `O=C1OC2(c3ccc(N4CC(F)(F)C4)cc3Oc3cc(N4CC(F)(F)C4)ccc32)c2ccccc21` [dye 7, JF525], for which, in data set [1], the εmax is listed as 122,000 M^−1cm^−1 and the “KL-Z (lactone-zwitterion equilibrium constant)” value is reported as 0.068. Besides, in [2], the εw is reported as 94,000 M^−1cm^−1, the λabs turned out to be 525 nm, the λem is 549 nm and the hypsochromic shift is given as approximately 25 nm. In addition, the “ϕ (fluorescence quantum yield)” value in [3] worked out at 0.91.

As to `C[Si]1(C)c2cc(N3CC(F)C3)ccc2C2(OC(=O)c3ccccc32)c2ccc(N3CC(F)C3)cc21` [dye 3, JF635], the “Φ (fluorescence quantum yield)” value in data set [5] is 0.54. Also, in data set [1], the εmax is on record as 167,000 M^−1cm^−1 and the “KL-Z (lactone-zwitterion equilibrium constant)” value was less than 0.0001. For the same compound, in [2], the εw was approximately 400 M⁻¹ cm⁻¹, the λabs worked out at 635 nm and the λem is 652 nm. Moreover, the KL-Z in data set [7] was less than 0.0001. For the same compound, the “ϕ (fluorescence quantum yield)” value in data set [3] is given as 0.56. Further, in data set [10], the λabs is on record as 635 nm, the λem is 652 nm and the “ε (extinction coefficient)” value is 400 M⁻¹ cm⁻¹.

`C[Si]1(C)c2cc(N3CCC3)ccc2C2(OC(=O)c3ccccc32)c2ccc(N3CCC3)cc21` [dye 2, JF646]: in [5], the “Φ (fluorescence quantum yield)” value is listed as 0.54. In addition, in [1], the εmax was 152,000 M^−1cm^−1 and the “KL-Z (lactone-zwitterion equilibrium constant)” value was determined as 0.0012. Moreover, the “change of absorption with detergents” value in data set [6] is “absorbance increases only in the presence of SDS”. Also, in data set [2], the εw was 5,000 M^−1cm^−1, the λabs was 646 nm and the λem is on record as 664 nm. Also, the KL-Z in data set [7] is 0.0012. In addition, the “ϕ (fluorescence quantum yield)” value in data set [3] is reported as 0.54. For the same compound, in [10], the λabs was 646 nm, the λem is listed as 664 nm and the “ε (extinction coefficient)” value was 5,000 M^−1 cm^−1.

Turning to `CC1(C)c2cc(N3CCC3)ccc2C2(OC(=O)c3ccccc32)c2ccc(N3CCC3)cc21` [dye 4, JF608], in [1], the εmax was 121,000 M^−1cm^−1 and the “KL-Z (lactone-zwitterion equilibrium constant)” value was determined as 0.091. In addition, in data set [2], the εw is reported as 99,000 M^−1cm^−1, the λabs was 608 nm and the λem was determined as 631 nm. For the same compound, in data set [3], the “ϕ (fluorescence quantum yield)” value came to 0.67.

With `O=C([O-])c1ccccc1-c1c2cc(F)c(=[N+]3CCC3)cc-2oc2cc(N3CCC3)c(F)cc12` [dye 9, Janelia Fluor 552], in [1], the εmax was 129,000 M^−1cm^−1 and the “KL-Z (lactone-zwitterion equilibrium constant)” value amounted to 0.70. Further, the “reduction of KL-Z” value in data set [1] (relative to JF549) was 5 fold. Besides, in [2], the εw is 95,000 M^−1cm^−1, the λabs amounted to 552 nm and the λem worked out at 575 nm. Also, the “ϕ (fluorescence quantum yield)” value in [3] is listed as 0.83.

The record behind these values is US12440581B2, “Fluorophores for super-resolution imaging” (HOWARD HUGHES MEDICAL INSTITUTE, priority 2019, dated 2025).
